{"source": "paper PMC9253272", "about": "(Frontiers in Pharmacology, 2022)", "key": {"[1]": {"test_system": "rat primary cortical neurons", "conditions": "microglia treated with 1 mM, LPS 24 h; neurons 24 h", "description": "Primary rat cortical microglia cells were prepared from newborn to 2–3 days-old SD strains. […] The supernatant was discarded after centrifuging at 1,100 × rpm for 10 min, the pellet was resuspended, and cortices were fully dissociated by pipetting, the cell suspension was filtered through a 70 μm mesh and transferred into a 75-cm^2 culture flask with poly-L-lysine (PLL, Sigma-Aldrich) coated. Flasks were incubated at 37°C and 5% CO2, and half of the culture media were changed every 2 days, after 2 weeks of culture, primary microglia were harvested by shaking the flask for 2 h at 200 × rpm, and then seeded into new plates pre-coated with PLL. […]\nThe neuron culture medium was collected and LDH was measured by the LDH assay kit (BioAssay Systems) according to the manufacturer’s instructions.\nData were presented as mean ± SD, statistical analysis was performed with one-way ANOVA followed by a Dunnett’s post hoc tests, ^∗∗ p < 0.01 versus LPS group; ^## p < 0.01, versus LPS with SHY-treated group. […] Results are expressed as mean ± SD (n = 5). […] Cell viability was analyzed by MTT assay, results are expressed as mean ± SD (n = 8). […]"}, "tMCAO rats": {"test_system": "tMCAO rats", "conditions": "50 mg/kg/day i.p., four weeks after tMCAO"}, "AMPK [2]": {"test_system": "AMPK", "conditions": "initial screening; ref Zhen et al., 2019; cited from earlier work"}, "BV-2 microglial cells [3]": {"test_system": "BV-2 microglial cells", "assay": "LPS-induced nitrite release in BV-2 microglial cells (Griess reagent)", "format": "cell-based", "conditions": "BV-2 cells; for IC50: pre-incubation 1 h (0.03-2.0 mM), then LPS 24 h", "description": "(§1) In brief, 50 μl cell supernatants were mixed with 50 μl Griess regent in 96-well-plate and reacted for about 5–10 min at room temperature. Read plate at 540 nm by a Microplate reader (Infinite M200, Molecular Device).\nSupernatants were collected for nitrite analysis."}, "[4]": {"conditions": "rat plasma, 50 mg/kg i.p."}, "AMPK [5]": {"test_system": "AMPK", "assay": "AMPK phosphorylation (p-AMPK Thr 172) by immunoblot in BV-2 microglial cells", "format": "cell-based", "conditions": "for onset time of AMPK activation: 1 mM, time course; for concentration at which activation of AMPK (p-AMPK) was observed (lowest effective): 1 h incubation", "procedure": "When reached 80% confluence, cells were seeded in 12-well or 6-well plates to perform further experiments."}, "BV-2 microglial cells [6]": {"test_system": "BV-2 microglial cells", "assay": "Cellular pharmacokinetics: uptake of metformin into BV-2 microglia (LC-MS/MS)", "conditions": "BV-2 cells", "excerpt": "(§2) The Michaelis-Menten equation with one saturable component was fit to the corrected uptake rate and the estimated Km and Vmax values are presented."}, "BV-2 microglial cells [7]": {"test_system": "BV-2 microglial cells", "conditions": "BV-2 cells, 1 mM, 1 h pre-incubation, LPS 200 ng/ml", "description": "as §1\nData were presented as mean ± SD, statistical analysis was performed with one-way ANOVA followed by a Dunnett’s post hoc tests, ^∗∗ p < 0.01 versus LPS group; ^## p < 0.01, versus LPS with SHY-treated group. […] Results are expressed as mean ± SD (n = 5). Data are presented as mean ± SD, statistical analysis was performed with one-way ANOVA, followed by a Dunnett’s post hoc tests, ^∗∗ p < 0.01 versus LPS group; ^# p < 0.05, versus LPS with SHY-treated group."}, "[8]": {"test_system": "primary rat cortical neurons", "assay": "Oxygen and glucose deprivation (OGD) of primary cortical neurons, MTT viability", "format": "cell-based", "conditions": "0.5 and 1 mM, 24 h pre-treatment, OGD 3 h, reperfusion 24 h", "description": "The culture medium was replenished with Neurobasal medium (Life Technologies) supplemented with 2% B27 (Life Technologies) 5 h after isolation, and half of the culture media was changed every 2 days, after 6 days of culture, and the neurons were used for further experiments.\nCells were transferred to a hypoxia incubator with 1% oxygen and 5% CO2 for 3 h. […] Control cells were not submitted to OGD and were maintained under normal conditions."}, "in vivo [9]": {"assay": "in vivo", "conditions": "male, Sprague-Dawley, rat, plasma, ip, 50 mg/kg"}, "AMPK [10]": {"test_system": "AMPK", "design": "method as in Ma et al., 2014", "conditions": "ref Ma et al., 2014; cited from earlier work"}, "in vitro": {"assay": "in vitro", "conditions": "mouse, BV-2 microglial cells", "excerpt": "as §2"}, "in vivo [11]": {"assay": "in vivo", "conditions": "male, Sprague-Dawley, rat, brain, 50 mg/kg"}, "[12]": {"conditions": "rat brain, metformin measured, 50 mg/kg i.p."}, "[13]": {"conditions": "15 min uptake, Michaelis-Menten fit"}}, "note": "Where a name gives a salt, the structure may show the parent alone. Read-outs that look alike come from different tables or passages of the source."}
{"smiles": "CN(C)C(=N)NC(=N)N.O=C(O)[C@H](O)[C@@H](O)CO", "note": "[SHY-01, metformin threonate]", "values": [{"measurement": "LDH release of neurons in response to conditioned medium of LPS-activated microglia, versus control or metformin hydrochloride", "setting": "[1]", "value": "remarkably decrease"}, {"measurement": "Rope climbing test, difference between SHY-01 and metformin hydrochloride", "setting": "tMCAO rats", "value": "did not differ"}, {"measurement": "atrophic volume of the ischemic brain versus vehicle", "setting": "tMCAO rats", "value": "effectively reduced"}, {"measurement": "body weight changes, difference between SHY-01 and metformin hydrochloride", "setting": "tMCAO rats", "value": "did not differ"}, {"measurement": "brain atrophy compared with metformin hydrochloride", "setting": "tMCAO rats", "value": "more potent reduction"}, {"measurement": "neurologic score compared with metformin hydrochloride", "setting": "tMCAO rats", "value": "significantly better improvement"}, {"measurement": "spatial learning in the Morris water maze test compared with metformin hydrochloride", "setting": "tMCAO rats", "value": "significantly better improvement"}, {"measurement": "potency on AMPK activation among the metformin salts screened", "setting": "AMPK [2]", "value": "strongest potency"}, {"measurement": "metformin concentration in the brain", "setting": "1 h after 50 mg/kg i.p.", "value": "0.32 ± 0.023", "unit": "µg/g"}, {"measurement": "metformin concentration in the brain", "setting": "2 h after 50 mg/kg i.p.", "value": "0.25 ± 0.032", "unit": "µg/g"}, {"measurement": "AUC (0−t)", "setting": "[12]", "value": "1870 ± 230", "unit": "ng·h/mL"}, {"measurement": "AUC (0−∞)", "setting": "[12]", "value": "2050 ± 180", "unit": "ng·h/mL"}, {"measurement": "Cmax", "setting": "[12]", "value": "520 ± 110", "unit": "ng/mL"}, {"measurement": "MRT (0−t)", "setting": "[12]", "value": "5.73 ± 0.63", "unit": "h"}, {"measurement": "MRT (0−∞)", "setting": "[12]", "value": "8.19 ± 0.66", "unit": "h"}, {"measurement": "t max", "setting": "[12]", "value": 0.5, "unit": "h"}, {"measurement": "IC50", "setting": "BV-2 microglial cells [3]", "value": 302, "unit": "µM"}, {"measurement": "half-life (t 1/2)", "setting": "[4]", "value": "8.22 ± 5.52", "unit": "h"}, {"measurement": "maximum plasma concentration (Cmax)", "setting": "[4]", "value": "11.29 ± 3.9", "unit": "ng/mL"}, {"measurement": "AUC (0−t)", "setting": "[4]; metformin measured", "value": "11470 ± 35", "unit": "ng·h/mL"}, {"measurement": "AUC (0−∞)", "setting": "[4]; metformin measured", "value": "12240 ± 40", "unit": "ng·h/mL"}, {"measurement": "CLz", "setting": "[4]; metformin measured", "value": "4,116.73 ± 422.20 ml/hr/kg"}, {"measurement": "Cmax", "setting": "[4]; metformin measured", "value": "11300 ± 3900", "unit": "ng/mL"}, {"measurement": "MRT (0−t)", "setting": "[4]; metformin measured", "value": "2.69 ± 0.45", "unit": "H"}, {"measurement": "MRT (0−∞)", "setting": "[4]; metformin measured", "value": "5.06 ± 2.54", "unit": "H"}, {"measurement": "Vz", "setting": "[4]; metformin measured", "value": "50,055.01 ± 36,787.23 ml/kg"}, {"measurement": "t 1/2", "setting": "[4]; metformin measured", "value": "8.22 ± 5.524", "unit": "H"}, {"measurement": "t max", "setting": "[4]; metformin measured", "value": 0.5, "unit": "H"}, {"measurement": "p-AMPK level compared to the same concentration of metformin hydrochloride", "setting": "AMPK [5]; BV-2 cells, 0.3 mM, 1 h", "value": "significantly higher"}, {"measurement": "effect on LPS-reduced AMPK phosphorylation", "setting": "AMPK [5]; BV-2 cells, 1 mM pre-incubation, LPS 200 ng/ml 0-4 h", "value": "significantly reverse"}, {"measurement": "onset time of AMPK activation", "setting": "AMPK [5]; BV-2 cells", "value": 0.5, "unit": "h"}, {"measurement": "concentration at which activation of AMPK (p-AMPK) was observed (lowest effective)", "setting": "AMPK [5]; BV-2 cells", "value": 0.3, "unit": "mM"}, {"measurement": "time to activation of AMPK after treatment", "setting": "AMPK [5]; discussion statement", "value": "≤ 30", "unit": "min"}, {"measurement": "accumulation of metformin compared with the same concentration of metformin hydrochloride", "setting": "BV-2 microglial cells [6]", "value": "more rapid"}, {"measurement": "Vmax of metformin uptake", "setting": "BV-2 microglial cells [6]; [13]", "value": "9.5 ± 1.2", "unit": "nmol/min/mg protein"}, {"measurement": "intracellular metformin contents compared with metformin hydrochloride", "setting": "BV-2 microglial cells [6]; LC-MS/MS", "value": "elevated intracellular metformin contents"}, {"measurement": "Km", "setting": "BV-2 microglial cells [6]; read-out: Km of metformin uptake, 15 min uptake, Michaelis-Menten fit", "value": "7.2 ± 1.5", "unit": "mM"}, {"measurement": "inhibition of LPS-induced pro-inflammatory cytokine expression (TNF-α, IL-1β, iNOS) compared with metformin hydrochloride", "setting": "BV-2 microglial cells [7]", "value": "stronger effect"}, {"measurement": "OGD-induced neuronal injury (cell viability, MTT)", "setting": "[8]", "value": "significantly prevented"}]}
{"smiles": "c1cc(-c2cnn3cc(-c4ccc(OCCN5CCCCC5)cc4)cnc23)ccn1", "note": "[compound C]", "values": [{"measurement": "effect on the inhibitory effect of SHY-01 on LPS-induced nitrite, TNF-α and IL-1β", "setting": "BV-2 microglial cells [3]; compound C 10 μM 1 h pre-incubation, SHY-01 1 mM, LPS 200 ng/ml", "value": "abolished"}]}
{"smiles": "CN(C)C(=N)N=C(N)N", "note": "[metformin hydrochloride]", "values": [{"measurement": "AUC", "setting": "in vivo [9]", "value": "7170 ± 275", "unit": "ng·h/mL"}, {"measurement": "AUC(0-inf)", "setting": "in vivo [9]", "value": "7170 ± 280", "unit": "ng·h/mL"}, {"measurement": "AUC(0-t)", "setting": "in vivo [9]", "value": "6590 ± 270", "unit": "ng·h/mL"}, {"measurement": "Cmax", "setting": "in vivo [9]", "value": "6630 ± 2100", "unit": "ng/mL"}, {"measurement": "MRT inf", "setting": "in vivo [9]", "value": "6.06 ± 1.73", "unit": "h"}, {"measurement": "MRT last", "setting": "in vivo [9]", "value": "3.48 ± 0.65", "unit": "h"}, {"measurement": "t max", "setting": "in vivo [9]", "value": 0.5, "unit": "h"}, {"measurement": "atrophic volume of the ischemic brain versus vehicle", "setting": "tMCAO rats", "value": "effectively reduced"}, {"measurement": "treatment time required to activate AMPK", "setting": "AMPK [10]", "value": "≥ 4", "unit": "h"}, {"measurement": "Km at 15 min", "setting": "in vitro", "value": "7.1 ± 1.7", "unit": "mM"}, {"measurement": "IC50", "setting": "BV-2 microglial cells [3]; Mus musculus", "value": 1070, "unit": "µM"}, {"measurement": "CLz", "setting": "[4]; metformin measured", "value": "7,068.89 ± 949.45 ml/hr/kg"}, {"measurement": "Cmax", "setting": "[4]; metformin measured", "value": "6640 ± 2110", "unit": "ng/mL"}, {"measurement": "Vz", "setting": "[4]; metformin measured", "value": "79,683.93 ± 23,176.87 ml/kg"}, {"measurement": "concentration at 1 h", "setting": "in vivo [11]; intraperitoneal", "value": "190 ± 32", "unit": "ng/g"}, {"measurement": "concentration at 2 h", "setting": "in vivo [11]; intraperitoneal", "value": "110 ± 12", "unit": "ng/g"}, {"measurement": "AUC(0-inf)", "setting": "in vivo [11]; ip", "value": "1890 ± 80", "unit": "ng·h/mL"}, {"measurement": "AUC(0-t)", "setting": "in vivo [11]; ip", "value": "1600 ± 180", "unit": "ng·h/mL"}, {"measurement": "Cmax", "setting": "in vivo [11]; ip", "value": "320 ± 80", "unit": "ng/g"}, {"measurement": "MRT inf", "setting": "in vivo [11]; ip", "value": "12.2 ± 2.9", "unit": "h"}, {"measurement": "MRT last", "setting": "in vivo [11]; ip", "value": "7.71 ± 0.45", "unit": "h"}, {"measurement": "t max", "setting": "in vivo [11]; ip", "value": 0.5, "unit": "h"}, {"measurement": "onset time of AMPK activation", "setting": "AMPK [5]; BV-2 cells", "value": 4, "unit": "h"}, {"measurement": "concentration at which activation of AMPK (p-AMPK) was observed (lowest effective)", "setting": "AMPK [5]; BV-2 cells", "value": 1.0, "unit": "mM"}, {"measurement": "Vmax of metformin uptake", "setting": "BV-2 microglial cells [6]; [13]", "value": "4.6 ± 0.6", "unit": "nmol/min/mg protein"}, {"measurement": "OGD-induced neuronal injury (cell viability, MTT)", "setting": "[8]", "value": "did not elicit such an effect"}]}
